In patent US20060069132A1, “Azolecarboxamide herbicides” (priority 2004, published 2006):

Assays:
kochia = experiment: Test C pre-/postemergence herbicide test; format: in vivo, Kochia scoparia; settings: preemergence; for Plant response rating (0 = no effect, 100 = complete control), Kochia: 125 g ai/ha
From the text: (§1) Seeds of plant species selected from bermudagrass (Cynodon dactylon (L.) Pers.), Surinam grass (Urochloa decumbens (Staph) R. D. Webster, previously named Brachiaria decumbens Stapf), cocklebur (Xanthium strumarium L.), corn (Zea mays L.), large crabgrass (Digitaria sanguinalis (L.) Scop.), woolly cupgrass (Eriochloa villosa (Thunb.) Kunth), giant foxtail (Setaria faberi Herrm.), goosegrass (Eleusine indica (L.) Gaertn.), johnsongrass (Sorghum halepense (L.) Pers.), kochia (Kochia scoparia (L.) Schrad.), lambsquarters (Chenopodium album L.), morningglory (Ipomoea coccinea L.), eastern black nightshade (Solanum ptycanthum Dunal), yellow nutsedge (Cyperus esculentus L.), pigweed (Amaranthus retroflexus L.), common ragweed (Ambrosia elatior L.), soybean (Glycine max (L.) Merr.), common (oilseed) sunflower (Helianthus annuus L.) and velvetleaf (Abutilon theophrasti Medik.) were planted and treated preemergence with test chemicals formulated in a non-phytotoxic solvent mixture which included a surfactant.
(§2) At the same time, plants selected from these crop and weed species and also winter barley (Hordeum vulgare L.), blackgrass (Alopecurus myosuroides Huds.), canarygrass (Phalaris minor Retz.), chickweed (Stellaria media (L.) Vill.), downy bromegrass (Bromus tectorum L.), green foxtail (Setaria viridis (L.) Beauv.), Italian ryegrass (Lolium multiflorum Lam.), wheat (Triticum aestivum L.), wild oat (Avenafatua L.) and windgrass (Apera spica-venti (L.) Beauv.) were treated with postemergence applications of some of the test chemicals formulated in the same manner. Plants ranged in height from 2 to 18 cm (1- to 4-leaf stage) for postemergence treatments. Plant species in the flooded paddy test consisted of rice (Oryza sativa), smallflower umbrella sedge (Cyperus difformis L.), ducksalad (Heteranthera limosa (Sw.) Willd.) and barnyardgrass (Echinochloa crus-galli (L.) Beauv.) grown to the 2-leaf stage for testing. Treated plants and controls were maintained in a greenhouse for 12 to 14 days, after which time all species were compared to controls and visually evaluated. Plant response ratings, summarized in Table C, are based on a scale of 0 to 100 where 0 is no effect and 100 is complete control. A dash (-) response means no test result.

[1] = tested on: smallflower umbrella sedge; experiment: Test C flooded paddy test; format: in vivo, Cyperus difformis; settings: for Plant response rating, Sedge, Umbrella: 500 g ai/ha, visual rating after 12 to 14 days
morningglory = experiment: Test C pre-/postemergence herbicide test; format: in vivo, Ipomoea coccinea; design: key to Plant response rating, Morningglory: 0 = no effect, 100 = complete control; settings: preemergence
From the text: as §1, §2

barnyardgrass = experiment: Test C flooded paddy test; format: in vivo, Echinochloa crus-galli; settings: for Plant response rating, Barnyardgrass: 500 g ai/ha, visual rating after 12 to 14 days
In short: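 Weeds and wheat were sprayed after emergence, at a height of 2 to 18 cm (1–4 leaves), and paddy barnyardgrass was flooded and treated at two leaves. Assessment took place 12–14 days later in the greenhouse on a 0-to-100 visual control scale. A dash means no result was obtained.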

soybean = experiment: Test C pre-/postemergence herbicide test; format: in vivo, Glycine max; settings: preemergence; for Plant response rating (0 = no effect, 100 = complete control), Soybean: 125 g ai/ha
From the text: as §1, §2

corn = experiment: Test C pre-/postemergence herbicide test; format: in vivo, Zea mays; settings: preemergence
From the text: as §1, §2

common ragweed = experiment: Test C pre-/postemergence herbicide test; format: in vivo, Ambrosia elatior; design: key to Plant response rating, Ragweed: 0 = no effect, 100 = complete control; settings: preemergence; for Plant response rating (0 = no effect, 100 = complete control), Ragweed: 125 g ai/ha
From the text: as §1, §2

rice = experiment: Test C flooded paddy test; format: in vivo, Oryza sativa; settings: for Plant response rating, Rice: 500 g ai/ha, visual rating after 12 to 14 days
In short: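 Injury scored visually against controls on a 0 (no effect) to 100 (complete control) scale, 12 to 14 days after treatment in greenhouse. Flooded paddy plants treated at 2-leaf stage; postemergence plants at 1- to 4-leaf stage, 2 to 18 cm tall.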

giant foxtail = experiment: Test C pre-/postemergence herbicide test; format: in vivo, Setaria faberi; settings: preemergence; for Plant response rating (0 = no effect, 100 = complete control), Foxtail, Giant: 125 g ai/ha
From the text: as §1, §2

Surinam grass = experiment: Test C pre-/postemergence herbicide test; format: in vivo, Urochloa decumbens; settings: preemergence
From the text: as §1, §2

velvetleaf = experiment: Test A pre-/postemergence herbicide test; format: in vivo, Abutilon theophrasti
In short: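 Both application timings were run together: directed soil spray over freshly planted seeds in sandy loam, and runoff spray onto 2–10 cm seedlings. Evaluation after ~10 days in greenhouse used a 0–100 visual scale versus untreated controls.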

[2] = 500 g ai/ha, scale 0 to 100 (0 no effect, 100 complete control), visual, 12 to 14 days
[3] = 125 g ai/ha, scale 0 to 100 (0 no effect, 100 complete control)
[4] = 250 g ai/ha, scale of 0 to 100, 0 is no effect, 100 is complete control
[5] = scale 0 to 100 (0 no effect, 100 complete control)
[6] = 62 g ai/ha, scale 0 to 100 (0 no effect, 100 complete control)

| SMILES | Plant response rating, Kochia (kochia; 62 g ai/ha, scale 0 to 100) | Plant response rating (0 = no effect, 100 = complete control), Kochia (kochia) | Plant response rating, Kochia (kochia; 250 g ai/ha, scale 0-100) | Plant response rating, Kochia (kochia; [2]) | Sedge, Umbrella plant response rating [1, 3] | Sedge, Umbrella plant response rating [1, 4] | Plant response rating, Sedge, Umbrella [1, 5] | Plant response rating, Morningglory (morningglory; 62 g ai/ha, scale 0 to 100) | Plant response rating, Morningglory (morningglory; [2]) | Barnyardgrass plant response rating (barnyardgrass; [6]) | Barnyardgrass plant response rating (barnyardgrass; [4]) | Plant response rating, Barnyardgrass (barnyardgrass; [5]) | Plant response rating, Soybean (soybean; 62 g ai/ha, scale 0 to 100) | Plant response rating (0 = no effect, 100 = complete control), Soybean (soybean) | Plant response rating, Soybean (soybean; [2]) | Plant response rating, Corn (corn; 62 g ai/ha, scale 0 to 100) | Plant response rating, Ragweed (common ragweed; 62 g ai/ha, scale 0 to 100) | Plant response rating (0 = no effect, 100 = complete control), Ragweed (common ragweed) | Plant response rating, Ragweed (common ragweed; [2]) | Rice plant response rating (rice; [3]) | also measured |
| --- | --- | --- | --- | --- | --- | --- | --- | --- | --- | --- | --- | --- | --- | --- | --- | --- | --- | --- | --- | --- | --- |
| CCc1nn(C(C)C)nc1C(=O)Nc1cccc(C(=O)N2CCCCC2)c1 [Compound 385] | 0 | 70 | 85 | 100 | 75 | 80 | 85 | 15 | 100 | 20 | 80 | 85 | 25 | 100 | 100 | 0 | 0 | 20 | 95 | 50 | Sedge, Umbrella plant response rating ([1]; 62 g ai/ha, scale 0 to 100): 75; Plant response rating, Morningglory (morningglory; 250 g ai/ha, scale 0-100): 65; Barnyardgrass plant response rating (barnyardgrass; [3]): 55; Plant response rating, Soybean (soybean; 250 g ai/ha, scale 0-100): 100; Plant response rating, Ragweed (common ragweed; 250 g ai/ha, scale 0-100): 90; Rice plant response rating (rice; 62 g ai/ha, scale 0 to 100): 40; Rice plant response rating (rice; [4]): 65; Plant response rating, Rice (rice; [5]): 80; Plant response rating, Foxtail, Giant (giant foxtail; 62 g ai/ha, scale 0 to 100): 40; Plant response rating (0 = no effect, 100 = complete control), Foxtail, Giant (giant foxtail): 80; Plant response rating, Foxtail, Giant (giant foxtail; 250 g ai/ha, scale 0-100): 95; Plant response rating, Foxtail, Giant (giant foxtail; [2]): 100 |
| CCNC(=S)c1cccc(NC(=O)c2nn(C(C)(C)C)nc2C)c1 [Compound 420] | 70 | 85 | 100 | 100 | – | – | – | 10 | 100 | – | – | – | 0 | 10 | 85 | 0 | 0 | 55 | 85 | – | Plant response rating (0 = no effect, 100 = complete control), Morningglory (morningglory; 125 g ai/ha): 55; Plant response rating (0 = no effect, 100 = complete control), Corn (corn; 125 g ai/ha): 0; Plant response rating, Corn (corn; 250 g ai/ha, scale 0-100): 10; Plant response rating, Corn (corn; [2]): 40; Plant response rating, Surinam Grass (Surinam grass; 62 g ai/ha, scale 0 to 100): 10; Plant response rating (0 = no effect, 100 = complete control), Surinam Grass (Surinam grass; 125 g ai/ha): 20; Plant response rating, Surinam Grass (Surinam grass; [2]): 95; Plant response rating, Foxtail, Giant (giant foxtail; 62 g ai/ha, scale 0 to 100): 20; Plant response rating (0 = no effect, 100 = complete control), Foxtail, Giant (giant foxtail): 90; Plant response rating, Foxtail, Giant (giant foxtail; 250 g ai/ha, scale 0-100): 100; Plant response rating, Foxtail, Giant (giant foxtail; [2]): 100 |
| CCOc1cccc(NC(=O)c2cc(C(C)(C)C)nn2CC)c1 [Compound 136] | – | – | – | – | 80 | 85 | 85 | – | – | 20 | 40 | 80 | – | – | – | – | – | – | – | 35 | Sedge, Umbrella plant response rating [1, 6]: 65; Barnyardgrass plant response rating (barnyardgrass; 125 g ai/ha, scale of 0 to 100, 0 is no effect, 100 is complete control): 25; Velvetleaf plant response rating (velvetleaf; Postemergence, 500 g ai/ha, 0 to 100 scale, 0 no effect, 100 complete control): 55; Plant response rating, Velvetleaf (velvetleaf; Postemergence, 2000 g ai/ha, 0 to 100 scale, 0 no effect, 100 complete control): 75; Velvetleaf plant response rating (velvetleaf; Preemergence, 2000 g ai/ha, visual rating, 0 to 100 scale (0 no effect, 100 complete control)): 30; Velvetleaf plant response rating (velvetleaf; preemergence, 500 g ai/ha, visual injury, 0 to 100 scale (0 no effect, 100 complete control)): 25; Rice plant response rating (rice; [6]): 30; Rice plant response rating (rice; [4]): 50; Plant response rating, Rice (rice; [5]): 70 |
